These are literature values, as cited in US7070816B2, “Methods for treating prostatic intraepithelial neoplasia with herbal compositions” (New Chapter, Inc., priority 2003, dated 2006).

Data set [1] deals with T1, COX-2 (Homo sapiens, UniProt P35354).
T1 sequence (P35354 18-604): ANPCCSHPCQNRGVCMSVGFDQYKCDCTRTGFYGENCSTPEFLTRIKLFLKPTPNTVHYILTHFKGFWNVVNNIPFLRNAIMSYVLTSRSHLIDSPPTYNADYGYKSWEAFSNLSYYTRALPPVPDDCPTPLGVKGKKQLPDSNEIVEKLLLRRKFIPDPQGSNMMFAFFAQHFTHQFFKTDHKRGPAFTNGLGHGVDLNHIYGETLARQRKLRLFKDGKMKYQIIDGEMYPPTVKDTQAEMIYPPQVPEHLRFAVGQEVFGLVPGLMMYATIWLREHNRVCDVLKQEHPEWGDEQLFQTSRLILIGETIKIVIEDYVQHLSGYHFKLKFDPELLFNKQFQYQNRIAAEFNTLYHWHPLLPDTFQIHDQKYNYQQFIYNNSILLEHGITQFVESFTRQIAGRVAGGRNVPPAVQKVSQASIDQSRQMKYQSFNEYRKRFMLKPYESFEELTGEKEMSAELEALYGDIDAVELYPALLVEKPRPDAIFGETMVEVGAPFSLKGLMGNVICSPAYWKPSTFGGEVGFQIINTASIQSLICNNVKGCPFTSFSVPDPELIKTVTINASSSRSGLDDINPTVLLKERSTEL

The target in data set [2] is COX-1 (Homo sapiens, UniProt P23219).
Sequence of COX-1 (P23219 24-599): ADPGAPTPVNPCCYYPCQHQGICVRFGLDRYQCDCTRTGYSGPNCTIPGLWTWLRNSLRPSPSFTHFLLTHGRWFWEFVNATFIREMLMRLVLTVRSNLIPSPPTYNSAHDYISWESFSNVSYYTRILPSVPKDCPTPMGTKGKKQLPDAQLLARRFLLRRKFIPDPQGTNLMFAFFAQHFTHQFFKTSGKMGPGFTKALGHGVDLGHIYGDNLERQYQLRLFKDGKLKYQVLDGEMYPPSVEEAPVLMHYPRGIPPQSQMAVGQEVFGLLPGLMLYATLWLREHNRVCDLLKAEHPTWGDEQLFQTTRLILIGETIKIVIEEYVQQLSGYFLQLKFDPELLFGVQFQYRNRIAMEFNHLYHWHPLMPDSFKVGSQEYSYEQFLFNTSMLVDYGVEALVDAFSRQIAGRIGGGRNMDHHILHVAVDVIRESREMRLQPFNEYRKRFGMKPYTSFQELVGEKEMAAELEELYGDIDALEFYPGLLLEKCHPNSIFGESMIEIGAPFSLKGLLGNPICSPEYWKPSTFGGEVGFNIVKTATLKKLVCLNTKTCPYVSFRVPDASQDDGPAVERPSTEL
Data set [3] relates to cyclooxygenase.
Data set [4] concerns the target T2, 5-lipoxygenase (Homo sapiens, UniProt P09917).
T2 sequence (P09917 1-674): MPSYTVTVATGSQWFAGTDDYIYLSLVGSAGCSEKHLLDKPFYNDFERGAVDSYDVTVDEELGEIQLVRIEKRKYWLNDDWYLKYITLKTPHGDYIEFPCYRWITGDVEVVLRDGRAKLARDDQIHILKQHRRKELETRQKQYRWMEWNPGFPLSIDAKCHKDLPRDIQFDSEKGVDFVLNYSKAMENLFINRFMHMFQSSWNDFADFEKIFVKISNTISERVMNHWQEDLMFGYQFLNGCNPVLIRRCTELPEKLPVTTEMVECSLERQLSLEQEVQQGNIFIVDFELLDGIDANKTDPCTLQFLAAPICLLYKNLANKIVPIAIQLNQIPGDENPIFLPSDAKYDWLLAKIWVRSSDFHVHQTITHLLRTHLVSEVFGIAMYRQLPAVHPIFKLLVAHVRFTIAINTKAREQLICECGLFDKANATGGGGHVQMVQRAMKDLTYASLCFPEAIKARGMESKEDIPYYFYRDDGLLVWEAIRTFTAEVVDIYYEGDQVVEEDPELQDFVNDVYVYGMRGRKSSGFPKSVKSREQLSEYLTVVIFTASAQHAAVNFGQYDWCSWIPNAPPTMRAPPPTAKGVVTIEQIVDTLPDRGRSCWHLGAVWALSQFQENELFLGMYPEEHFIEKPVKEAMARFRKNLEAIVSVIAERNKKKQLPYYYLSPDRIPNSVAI

For the compound `C[C@H]1[C@H](C)CC[C@]2(C(=O)O)CC[C@]3(C)C(=CC[C@@H]4[C@@]5(C)CC[C@H](O)C(C)(C)[C@@H]5CC[C@]43C)[C@H]12` [Ursolic acid], the COX-2 inhibition entry in data set [1] was “significant COX-2 inhibitory effect”.

Turning to `O=C(O)c1ccccc1O` [salicylic acid], the COX-2 inhibition result in data set [1] was “COX-2 inhibitor”.

Take `COc1ccc2cc3[n+](cc2c1OC)CCc1cc2c(cc1-3)OCO2` [Berberine]: the COX-2 inhibition entry in data set [1] is “inhibit COX-2”. Further, the COX-1 inhibition entry in data set [2] is on record as “without inhibiting COX-1 activity”.

As for `Oc1cc(O)c2c(c1)O[C@H](c1ccc(O)c(O)c1)[C@@H](O)C2` [(+)-catechin], the COX-2 inhibition result in data set [1] is “COX-1 and COX-2 inhibitors”. Besides, the COX-1 inhibition entry in data set [2] was “COX-1 and COX-2 inhibitors”.

Regarding shogaols, in data set [3], the cyclooxygenase inhibition entry is listed as “inhibit cyclooxygenase”.

gingerols: the cyclooxygenase inhibition entry in data set [3] was “inhibit cyclooxygenase”.

For the compound `C=CCc1ccc(O)c(OC)c1` [Eugenol], the 5-lipoxygenase inhibition in data set [4] was 5-lipoxygenase inhibitor.
